Laboratory results: ChEMBL document CHEMBL1149603, “5-Arylidene-2,4-thiazolidinediones as inhibitors of protein tyrosine phosphatases” (Bioorg Med Chem, 2007)

Assays:
[1] = target: T1, Tyrosine-protein phosphatase non-receptor type 1 (Homo sapiens, UniProt P18031); assay: Inhibition of human protein-tyrosine phosphatase 1B
T1 sequence (P18031 whole entry): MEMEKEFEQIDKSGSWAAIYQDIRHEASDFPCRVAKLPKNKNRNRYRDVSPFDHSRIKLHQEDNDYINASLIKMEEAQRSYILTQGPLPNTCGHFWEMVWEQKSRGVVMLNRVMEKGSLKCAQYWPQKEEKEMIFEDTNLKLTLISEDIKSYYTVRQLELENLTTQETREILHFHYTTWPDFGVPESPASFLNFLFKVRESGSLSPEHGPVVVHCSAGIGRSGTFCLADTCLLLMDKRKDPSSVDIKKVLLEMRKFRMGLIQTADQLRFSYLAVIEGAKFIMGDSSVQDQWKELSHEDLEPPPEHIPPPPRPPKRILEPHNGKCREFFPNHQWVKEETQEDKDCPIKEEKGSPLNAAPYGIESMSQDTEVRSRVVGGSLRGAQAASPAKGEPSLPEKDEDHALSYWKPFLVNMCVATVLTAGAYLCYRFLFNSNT

[2] = target: T2, Low molecular weight phosphotyrosine protein phosphatase (Homo sapiens, UniProt P24666); assay: Inhibition of human low molecular weight Protein-tyrosine phosphatase IF1
T2 sequence (P24666 whole entry): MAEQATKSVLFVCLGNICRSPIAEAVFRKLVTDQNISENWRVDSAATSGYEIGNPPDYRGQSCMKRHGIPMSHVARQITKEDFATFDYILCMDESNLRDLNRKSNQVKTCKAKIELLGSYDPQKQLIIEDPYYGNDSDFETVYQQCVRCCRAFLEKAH

[3] = target: T2, Low molecular weight phosphotyrosine protein phosphatase; assay: Inhibition of human low molecular weight Protein-tyrosine phosphatase IF2
[4] = target: T3, Low molecular weight phosphotyrosine protein phosphatase (Saccharomyces cerevisiae S288c, UniProt P40347); assay: Inhibition of Saccharomyces cerevisiae low molecular weight Protein-tyrosine phosphatase Ltp1
T3 sequence (P40347 whole entry): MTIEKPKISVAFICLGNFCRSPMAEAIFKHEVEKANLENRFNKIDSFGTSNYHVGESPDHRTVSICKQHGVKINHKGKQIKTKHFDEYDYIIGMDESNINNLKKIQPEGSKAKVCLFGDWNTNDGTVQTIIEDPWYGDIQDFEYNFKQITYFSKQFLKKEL

[5] = target: T4, Tyrosine-protein phosphatase non-receptor type 2 (Homo sapiens, UniProt P17706); assay: Inhibition of human T cell protein-tyrosine phosphatase; assay type: cell-based
T4 sequence (P17706 whole entry): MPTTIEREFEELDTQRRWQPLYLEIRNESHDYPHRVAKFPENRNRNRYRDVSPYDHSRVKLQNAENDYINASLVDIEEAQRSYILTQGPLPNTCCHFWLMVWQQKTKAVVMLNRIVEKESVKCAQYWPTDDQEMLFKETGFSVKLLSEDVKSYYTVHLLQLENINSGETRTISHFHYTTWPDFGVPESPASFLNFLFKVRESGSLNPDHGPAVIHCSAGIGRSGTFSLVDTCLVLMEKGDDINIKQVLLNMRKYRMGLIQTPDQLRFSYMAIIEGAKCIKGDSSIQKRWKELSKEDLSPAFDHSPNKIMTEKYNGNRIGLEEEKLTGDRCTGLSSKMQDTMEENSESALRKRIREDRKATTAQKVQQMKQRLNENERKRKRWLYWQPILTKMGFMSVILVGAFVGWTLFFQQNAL

[6] = target: Receptor-type tyrosine-protein phosphatase F (Homo sapiens, UniProt P10586); assay: Inhibition of human leukocyte antigen related protein-tyrosine phosphatase
[7] = target: Receptor-type tyrosine-protein phosphatase beta (Homo sapiens, UniProt P23467); assay: Inhibition of human protein-tyrosine phosphatase beta
[8] = Inhibition of Yersinia Tyrosine-protein phosphatase yopH; design: species or system Yersinia sp.

Receptor-type tyrosine-protein phosphatase beta, sequence (P23467 whole entry): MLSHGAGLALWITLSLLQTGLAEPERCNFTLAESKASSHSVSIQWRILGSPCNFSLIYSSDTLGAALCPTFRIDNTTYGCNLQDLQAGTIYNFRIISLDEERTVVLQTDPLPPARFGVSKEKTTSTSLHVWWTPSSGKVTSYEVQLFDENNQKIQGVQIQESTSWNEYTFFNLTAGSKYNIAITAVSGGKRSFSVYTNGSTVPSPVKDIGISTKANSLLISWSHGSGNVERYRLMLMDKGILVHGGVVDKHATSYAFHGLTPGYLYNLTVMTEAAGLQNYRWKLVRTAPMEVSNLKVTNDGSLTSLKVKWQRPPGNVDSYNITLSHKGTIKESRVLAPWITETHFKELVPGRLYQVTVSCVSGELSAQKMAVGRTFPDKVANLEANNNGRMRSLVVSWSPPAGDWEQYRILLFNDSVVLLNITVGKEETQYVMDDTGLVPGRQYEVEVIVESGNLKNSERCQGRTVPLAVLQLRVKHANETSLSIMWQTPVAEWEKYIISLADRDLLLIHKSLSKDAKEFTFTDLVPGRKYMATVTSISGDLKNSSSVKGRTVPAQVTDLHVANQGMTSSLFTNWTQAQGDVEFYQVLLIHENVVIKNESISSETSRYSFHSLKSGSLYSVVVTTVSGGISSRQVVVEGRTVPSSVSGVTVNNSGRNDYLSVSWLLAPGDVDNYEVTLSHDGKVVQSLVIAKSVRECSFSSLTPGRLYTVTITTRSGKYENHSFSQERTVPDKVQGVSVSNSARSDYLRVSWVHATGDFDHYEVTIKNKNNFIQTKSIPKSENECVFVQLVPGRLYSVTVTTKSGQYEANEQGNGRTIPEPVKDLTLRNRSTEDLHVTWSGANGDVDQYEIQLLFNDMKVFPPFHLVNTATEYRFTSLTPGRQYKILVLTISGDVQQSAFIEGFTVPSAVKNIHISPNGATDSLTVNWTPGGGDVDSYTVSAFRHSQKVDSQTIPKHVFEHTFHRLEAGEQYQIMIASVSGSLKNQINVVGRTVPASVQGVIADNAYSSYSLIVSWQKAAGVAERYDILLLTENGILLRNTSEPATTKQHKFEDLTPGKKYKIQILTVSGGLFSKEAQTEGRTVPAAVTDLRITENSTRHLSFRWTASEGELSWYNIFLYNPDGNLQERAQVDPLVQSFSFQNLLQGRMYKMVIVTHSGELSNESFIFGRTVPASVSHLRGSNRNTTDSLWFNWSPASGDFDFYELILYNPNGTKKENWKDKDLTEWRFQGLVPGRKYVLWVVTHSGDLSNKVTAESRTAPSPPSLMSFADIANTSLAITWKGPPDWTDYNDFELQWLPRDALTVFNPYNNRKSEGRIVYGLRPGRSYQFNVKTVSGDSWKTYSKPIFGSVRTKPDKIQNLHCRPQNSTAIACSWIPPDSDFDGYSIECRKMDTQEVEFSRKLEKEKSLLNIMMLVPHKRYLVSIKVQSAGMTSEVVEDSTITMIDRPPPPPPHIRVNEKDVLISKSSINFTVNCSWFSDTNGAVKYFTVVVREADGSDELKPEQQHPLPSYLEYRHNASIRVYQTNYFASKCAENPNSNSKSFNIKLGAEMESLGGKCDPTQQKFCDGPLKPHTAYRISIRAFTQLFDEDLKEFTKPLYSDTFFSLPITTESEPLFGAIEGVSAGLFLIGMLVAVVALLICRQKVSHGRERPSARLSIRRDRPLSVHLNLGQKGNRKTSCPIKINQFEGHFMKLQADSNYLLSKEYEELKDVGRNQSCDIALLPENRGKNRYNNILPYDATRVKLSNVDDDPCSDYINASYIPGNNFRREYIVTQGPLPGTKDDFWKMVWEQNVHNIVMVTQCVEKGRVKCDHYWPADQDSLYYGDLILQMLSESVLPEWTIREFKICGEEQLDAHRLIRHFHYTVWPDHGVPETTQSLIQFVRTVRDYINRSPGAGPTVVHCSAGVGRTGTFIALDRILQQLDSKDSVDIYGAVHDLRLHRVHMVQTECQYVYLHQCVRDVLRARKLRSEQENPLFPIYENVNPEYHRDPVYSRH
Receptor-type tyrosine-protein phosphatase F, sequence (P10586 whole entry): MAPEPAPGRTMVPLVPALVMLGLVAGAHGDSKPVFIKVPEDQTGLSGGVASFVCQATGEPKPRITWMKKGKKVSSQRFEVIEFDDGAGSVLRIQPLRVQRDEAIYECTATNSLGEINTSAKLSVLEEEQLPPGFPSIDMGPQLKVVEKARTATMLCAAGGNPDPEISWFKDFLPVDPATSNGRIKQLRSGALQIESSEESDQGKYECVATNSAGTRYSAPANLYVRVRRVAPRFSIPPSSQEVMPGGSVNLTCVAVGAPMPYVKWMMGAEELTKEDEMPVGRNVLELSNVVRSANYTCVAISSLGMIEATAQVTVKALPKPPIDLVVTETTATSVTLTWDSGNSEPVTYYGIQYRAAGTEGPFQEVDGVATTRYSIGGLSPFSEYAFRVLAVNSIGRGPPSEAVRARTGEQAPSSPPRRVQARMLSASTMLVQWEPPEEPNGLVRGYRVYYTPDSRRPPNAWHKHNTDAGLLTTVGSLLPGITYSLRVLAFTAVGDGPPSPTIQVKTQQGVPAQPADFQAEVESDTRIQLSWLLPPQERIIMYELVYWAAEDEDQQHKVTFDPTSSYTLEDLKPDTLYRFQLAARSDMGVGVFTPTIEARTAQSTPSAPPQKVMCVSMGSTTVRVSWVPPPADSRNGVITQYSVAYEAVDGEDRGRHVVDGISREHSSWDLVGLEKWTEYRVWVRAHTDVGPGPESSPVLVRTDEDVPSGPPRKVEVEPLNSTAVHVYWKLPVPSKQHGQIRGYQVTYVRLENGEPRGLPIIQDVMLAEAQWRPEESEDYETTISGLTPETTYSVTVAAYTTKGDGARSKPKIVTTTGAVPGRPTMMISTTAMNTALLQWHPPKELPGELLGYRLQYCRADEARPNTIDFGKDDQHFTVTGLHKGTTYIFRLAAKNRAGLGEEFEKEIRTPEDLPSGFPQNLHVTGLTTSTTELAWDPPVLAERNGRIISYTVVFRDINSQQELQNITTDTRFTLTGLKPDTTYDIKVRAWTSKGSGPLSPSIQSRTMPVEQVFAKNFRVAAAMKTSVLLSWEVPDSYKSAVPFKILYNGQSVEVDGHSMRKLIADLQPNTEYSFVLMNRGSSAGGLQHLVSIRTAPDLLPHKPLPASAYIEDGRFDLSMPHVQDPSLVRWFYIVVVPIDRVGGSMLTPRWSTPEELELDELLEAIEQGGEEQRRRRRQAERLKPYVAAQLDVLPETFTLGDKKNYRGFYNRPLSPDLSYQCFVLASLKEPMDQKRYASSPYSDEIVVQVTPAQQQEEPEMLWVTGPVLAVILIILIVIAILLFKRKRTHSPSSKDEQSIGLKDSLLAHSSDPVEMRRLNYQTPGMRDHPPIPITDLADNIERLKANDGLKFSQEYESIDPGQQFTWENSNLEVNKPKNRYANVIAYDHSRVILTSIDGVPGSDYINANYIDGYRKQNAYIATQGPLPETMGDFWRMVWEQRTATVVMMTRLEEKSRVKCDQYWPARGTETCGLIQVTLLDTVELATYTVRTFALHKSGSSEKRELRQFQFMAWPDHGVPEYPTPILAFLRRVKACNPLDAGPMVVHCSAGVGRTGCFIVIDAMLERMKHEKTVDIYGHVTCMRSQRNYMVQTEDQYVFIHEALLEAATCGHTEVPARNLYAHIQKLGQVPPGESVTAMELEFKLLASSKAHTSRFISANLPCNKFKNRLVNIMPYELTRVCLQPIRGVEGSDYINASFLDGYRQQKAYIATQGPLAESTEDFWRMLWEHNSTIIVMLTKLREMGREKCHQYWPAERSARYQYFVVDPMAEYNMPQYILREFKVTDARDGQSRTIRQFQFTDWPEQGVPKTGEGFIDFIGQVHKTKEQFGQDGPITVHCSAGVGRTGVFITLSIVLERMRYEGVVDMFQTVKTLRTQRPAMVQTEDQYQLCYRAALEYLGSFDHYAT

SMILES	IC50 [1] [µM]	IC50 [2] [µM]	IC50 [3] [µM]	IC50 [4] [µM]	IC50 [5] [µM]	IC50 [6] [µM]	IC50 [7] [µM]	IC50 [8] [µM]
O=C(O)c1ccc(CN2C(=O)S/C(=C\c3cccc(Oc4ccccc4)c3)C2=O)cc1	18	37	130	483				
O=C(O)c1ccc(CN2C(=O)S/C(=C\c3cccc(OCc4ccccc4)c3)C2=O)cc1	1.1	7.1	18.4	19.7				
COc1cc(/C=C2\SC(=O)N(Cc3ccc(C(=O)O)cc3)C2=O)ccc1O	2.6	9.1	26.6	389				
O=C(O)c1ccc(CN2C(=O)S/C(=C\c3cccc(O)c3)C2=O)cc1	10.2	85.7	112	1390				
O=C(O)COc1ccc(/C=C2\SC(=O)N(Cc3ccc(C(=O)O)cc3)C2=O)cc1	85	219	1640	> 450				
O=C(O)c1ccc(CN2C(=O)S/C(=C\c3ccc(Oc4ccccc4)cc3)C2=O)cc1	2.8	0.9	13	34	2.8		1.1	1
O=C(O)c1ccc(CN2C(=O)S/C(=C\c3ccc(O)cc3)C2=O)cc1	10	30	85	188				

Next, values leading:

IC50 [1] [µM]	IC50 [2] [µM]	IC50 [3] [µM]	IC50 [4] [µM]	IC50 [5] [µM]	IC50 [6] [µM]	IC50 [7] [µM]	IC50 [8] [µM]	SMILES
1.6	2.5	5.6	15	1.3	27	0.4	0.3	O=C(O)c1ccc(CN2C(=O)S/C(=C\c3ccc(OCc4ccccc4)cc3)C2=O)cc1
6.5	12	92	149					O=C(O)c1ccc(CN2C(=O)S/C(=C\c3ccc4ccccc4c3)C2=O)cc1
5.5	122	138	99					O=C(O)c1ccc(CN2C(=O)S/C(=C\c3cccc4ccccc34)C2=O)cc1
